Test results as given in patent US8557783B2, “Phosphotetrahydropyran compounds for the treatment of wounds and fibrotic disorders” (Pharmaxis Pty Limited, priority 2009, dated 2013).

Key:
[1] = target: T1, Cation-Independent Mannose 6-Phosphate Receptor (sCI-MPR) (Bos taurus, UniProt P08169); assay: Antagonism of mannose 6-phosphate binding to the CI-M6P receptor (SPR, Biacore); set-up: species or system fetal calf; details: mean; SPR at 25° C., sCI-MPR binding to immobilized human β-glucuronidase
T1 construct: Samples of purified sCI-MPR purified from fetal calf serum; from tissue; host or cells: fetal calf serum
Description: All surface plasmon resonance (SPR) measurements were performed at 25° C. using a Biacore 3000 instrument (BIAcore, Piscataway, N.J.). CM5 research grade sensor chips, surfactant P20 and amine coupling kits were also obtained from BIAcore. Purified human β-glucuronidase was immobilized on CM5 sensor chips following activation of the surface using 1-ethyl-3-(3-dimethylaminopropyl)carbodiimide and N-hydroxysuccinimide as recommended by the manufacturer. Briefly, the proteins were injected onto the activated dextran surface at a concentration of 10-20 μg/mL in 10 mM sodium acetate buffer, pH 4.5 using 10 mM HEPES pH 7.5, 150 mM NaCl and 0.005% (v/v) P20 as the running buffer. After coupling, unreacted N-hydroxysuccinimide ester groups were blocked with ethanolamine. The reference surface was treated in the same way except that protein was omitted. […] The response at equilibrium for each concentration of protein was determined by averaging the response over a 10 sec period within the steady state region of the sensorgram using the BIAevaluation software package (version 4.0.1). […]

[2] = system: LPS-induced lung inflammation, C57BI/6 mice; assay: Acute LPS-induced lung inflammation in the mouse; format: in vivo; details: for total number of inflammatory cells in BAL fluid versus LPS control group: 15 min prior to LPS, 3 hours after LPS
Description: Age-matched germ-free male C57BI/6 mice (25.30±0.39 g; 6-7 week-old) were transiently anaesthetized with a mixture of isoflurane and oxygen. The vehicle-treated group received intravenous injection (iv) of saline 15 min prior to intra-tracheal instillation (i.t.) of lipopolysaccharide (LPS, 3 mg/kg). Another set of animals received i.v. injection of dexamethasone at 1 mg/kg or 2.5 mg/kg 1 hour prior to LPS. The phosphotetrahydropyran test compound was administered to the animals at 5, 15 and 30 mg/kg (iv) 15 min prior to LPS instillation. A separate group of mice was used as sham (saline/PBS) and was treated with i.v. injection of saline and i.t. injection of PBS (phosphate buffered saline).
Three hours after the LPS administration, animals were anaesthetized with urethane (25%, […] body weight). A blood sample was collected by cardiac puncture (≅1 mL) and the animals were sacrificed by cervical dislocation. The trachea was cannulated and the lungs were lavaged with 2 mL of PBS containing EDTA (1 mM). The lavaged fluid was harvested by gentle injections and aspirations four times with 0.5 mL each, and centrifuged. The total cell count was determined on a fresh fluid specimen with Turk solution using a Neubauer chamber. Differential cell counts were determined using Cytospin technique. Aliquots of the bronchoalveolar lavage (BAL) supernatants were stored without further treatment at −80° C.
Slices of each pulmonary lobe were immediately removed from the animal, weighed and either frozen in liquid nitrogen for myeloperoxidase (MPO) assay or placed in the oven for lung oedema evaluation. Determination of MPO activity was used as an index of leukocyte accumulation, where one unit of MPO activity was defined as that degrading 1 μmol hydrogen peroxide/min at 25° C. by the formula MPO (U/g)=Vmax/s×60/0.0113/0.5. Data were presented as MPO activity expressed as U/g wet tissue. To determine pulmonary oedema, the left pulmonary lobes were removed, weighed and dried at 60° C. for 48 h for wet to dry weight ratio measurements.

[3] = system: thioglycolate-induced leukocyte migration in the peritoneal cavity, C57BI/6 mice; assay: Thioglycolate-induced peritonitis in the mouse; format: in vivo; details: for peritoneal total cell number in untreated mice compared with treated mice: −15 min, 3 h
Description: Germ-free male C57BI/6 mice, weighing in the target range of 21.30±0.39 g (6-7 week-old) were anaesthetised with halothane and then received by intravenous route (iv) increasing doses of the phosphotetrahydropyran test compound (5 or 15 mg/kg, −15 min), dexamethasone (1 mg/kg, −60 min) or the respective vehicle (saline 0.9%, pH 7.4). Peritoneal inflammation was induced by i.p. injection of Brewer's thioglycolate. Thioglycolate was prepared freshly (3%, w/v) in sterile saline, and 1.5 mL was injected into the intraperitoneum cavity (ip). Following 3 h treatment, animals were killed (under anesthesia) by cervical dislocation, and cells were recovered by peritoneal lavage using 5 mL of ice-cold PBS. The lavage contents were immediately stored on ice. Peritoneal exudate cells (PEC) were further diluted in 5 mL of ice-cold PBS. The total cell count was determined on a Neubauer chamber with Turk solution, whereas the differential cell counts were conducted on cytospin preparations. Peritoneal lavage was carefully confirmed to be negative for erythrocytes by microscopy to exclude the possibility that leukocyte accumulation in the peritoneal cavity was due to microbleeding, which may occur during animal preparation.
Data are expressed as Mean (±SEM) from n individual animals. Statistical analysis of data was carried out using Software Graphpad prism v4. Comparative data were analysed using ANOVA followed by Dunnett's post test and ANOVA (unpaired Student's T tests). Statistical P values less than 0.05 were taken as significant.
The results of polymorphonuclear (PMN) (A), mononuclear (MN) recruitment (B) and total cells (C) are shown as number of cells per cavity. The results are from a representative experiment with 11 mice. Significant p values for each time point are shown (Dunnett's post test and unpaired T-test).

[4] = Determination of bioavailability in the rat; format: in vivo; details: oral, rats, gavage 10 mg/kg versus intravenously 1 mg/kg, plasma LC-MS
Description: The phosphotetrahydropyran test compound (Formula 1; n=1 and R=2,4-dimethylphenyl) was administered to rats by gavage at 10 mg/kg or intravenously at 1 mg/kg). Blood samples were taken at 15 and 30 min and at 1, 2, 3, 4, 8, 12 and 24 hours. Plasma samples were prepared by the addition of 50% acetonitrile/water (20 μL). Protein precipitation was carried out by the addition of trichloroacetic acid (20% in water, 40 μL), vortexing (20 s) and after storing at 4° C. for 60 minutes, centrifugation (10,000 rpm) in a microcentrifuge for 5 min. The supernatant was subsequently separated and 25 μL injected directly onto the column for LC-MS analysis.

[5] = system: New Zealand White rabbits, filtering bleb; assay: Rabbit model of experimental glaucoma filtering surgery; format: in vivo; details: intraoperative sponge 3 minutes; PXS-25 40 mg/mL, MMC 0.4 mg/mL
Description: New Zealand White rabbits (18) were subjected to a modified glaucoma filtering surgery in the left eye. The animals received either intraoperative PXS-25 at a concentration of 40 mg/mL (Group 1), intraoperative Mitomycin C (MMC) at a concentration of 0.4 mg/mL (Group 2), or intraoperative test compound and Mitomycin C (MMC) (Group 3).
Filtration surgery was performed on the left eye only. MMC, test compound (Formula 1) or the combination were delivered with a large sponge measuring 8×10 mm (dry size) cut from a Weck-Cel prior to cutting the flap and sclerostomy. The sponge pieces were placed between the conjunctiva and sclera over the determined filtration site for 3 minutes. The area was then thoroughly irrigated with 30 mL of physiologic saline. The animals were reviewed on the first day after surgery, and then weekly until bleb failure. The study was terminated after the 8 week. Fluorescein tracer studies was performed as follows. Sodium fluorescein was injected into the anterior chamber and the drainage pathway using a slit lamp based digital video camera system was recorded. The animals were sacrificed and tissue sections were prepared for immunohistochemically staining for signs of scarring and inflammation.

T1 sequence (P08169 45-2313 limits assumed): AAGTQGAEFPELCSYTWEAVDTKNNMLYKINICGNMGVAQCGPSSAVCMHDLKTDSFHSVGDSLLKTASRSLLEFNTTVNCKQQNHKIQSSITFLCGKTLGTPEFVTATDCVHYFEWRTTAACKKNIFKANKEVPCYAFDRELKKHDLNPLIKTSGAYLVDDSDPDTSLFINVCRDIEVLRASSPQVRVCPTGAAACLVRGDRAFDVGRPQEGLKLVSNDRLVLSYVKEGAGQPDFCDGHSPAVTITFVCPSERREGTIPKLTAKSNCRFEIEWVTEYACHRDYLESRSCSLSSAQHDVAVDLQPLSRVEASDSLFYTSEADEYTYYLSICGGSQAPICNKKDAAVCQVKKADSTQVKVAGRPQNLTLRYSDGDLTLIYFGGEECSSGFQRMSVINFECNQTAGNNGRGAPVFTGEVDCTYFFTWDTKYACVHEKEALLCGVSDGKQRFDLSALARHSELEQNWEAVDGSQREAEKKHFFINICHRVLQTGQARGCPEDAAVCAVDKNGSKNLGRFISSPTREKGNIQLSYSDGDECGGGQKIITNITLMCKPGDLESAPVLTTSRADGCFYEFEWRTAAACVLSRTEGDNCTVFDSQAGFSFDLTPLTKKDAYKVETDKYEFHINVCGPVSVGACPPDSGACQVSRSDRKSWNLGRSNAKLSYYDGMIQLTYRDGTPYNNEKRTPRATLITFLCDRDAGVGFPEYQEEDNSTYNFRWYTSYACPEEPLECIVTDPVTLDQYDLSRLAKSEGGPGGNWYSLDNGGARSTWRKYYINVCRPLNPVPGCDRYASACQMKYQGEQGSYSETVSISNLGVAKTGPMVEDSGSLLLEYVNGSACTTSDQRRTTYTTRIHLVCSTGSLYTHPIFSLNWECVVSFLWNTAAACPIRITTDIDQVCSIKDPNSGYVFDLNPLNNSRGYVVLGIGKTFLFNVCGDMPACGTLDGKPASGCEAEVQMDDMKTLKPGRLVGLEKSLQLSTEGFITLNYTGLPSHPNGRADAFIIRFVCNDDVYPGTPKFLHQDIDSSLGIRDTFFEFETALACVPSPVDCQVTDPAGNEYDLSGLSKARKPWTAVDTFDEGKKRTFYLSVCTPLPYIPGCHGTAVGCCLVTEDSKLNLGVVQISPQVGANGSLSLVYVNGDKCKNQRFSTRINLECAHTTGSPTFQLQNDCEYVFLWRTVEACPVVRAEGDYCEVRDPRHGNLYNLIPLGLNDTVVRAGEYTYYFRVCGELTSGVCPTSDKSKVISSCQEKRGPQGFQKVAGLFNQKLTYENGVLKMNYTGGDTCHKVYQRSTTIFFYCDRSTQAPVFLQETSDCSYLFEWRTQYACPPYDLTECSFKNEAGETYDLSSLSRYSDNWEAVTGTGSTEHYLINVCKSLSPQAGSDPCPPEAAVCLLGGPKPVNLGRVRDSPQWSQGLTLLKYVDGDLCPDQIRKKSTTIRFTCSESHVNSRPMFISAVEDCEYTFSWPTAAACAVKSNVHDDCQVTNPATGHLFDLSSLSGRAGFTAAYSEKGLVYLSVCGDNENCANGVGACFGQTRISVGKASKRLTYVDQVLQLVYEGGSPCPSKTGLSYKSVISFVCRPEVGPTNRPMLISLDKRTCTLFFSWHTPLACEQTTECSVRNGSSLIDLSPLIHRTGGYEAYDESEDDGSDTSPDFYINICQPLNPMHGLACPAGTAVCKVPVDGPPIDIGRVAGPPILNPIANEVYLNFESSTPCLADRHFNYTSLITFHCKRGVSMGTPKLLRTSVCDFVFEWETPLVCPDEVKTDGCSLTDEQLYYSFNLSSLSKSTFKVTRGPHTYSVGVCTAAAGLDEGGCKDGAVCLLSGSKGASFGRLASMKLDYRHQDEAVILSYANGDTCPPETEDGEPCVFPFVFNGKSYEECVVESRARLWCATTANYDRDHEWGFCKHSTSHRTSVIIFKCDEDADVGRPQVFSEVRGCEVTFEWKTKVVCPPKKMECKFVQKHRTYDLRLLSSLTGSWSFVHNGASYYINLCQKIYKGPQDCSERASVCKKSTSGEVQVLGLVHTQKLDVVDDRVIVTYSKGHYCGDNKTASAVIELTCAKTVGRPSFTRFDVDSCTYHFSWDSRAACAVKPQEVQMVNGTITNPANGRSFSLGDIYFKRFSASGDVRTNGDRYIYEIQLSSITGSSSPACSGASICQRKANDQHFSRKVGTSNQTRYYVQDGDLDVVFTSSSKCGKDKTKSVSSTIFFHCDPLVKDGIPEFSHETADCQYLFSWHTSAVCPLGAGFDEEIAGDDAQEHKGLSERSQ

With `Cc1ccc(COC2O[C@H](CCP(=O)(O)O)[C@@H](O)[C@H](O)[C@@H]2O)c(C)c1` (some centres unmarked) [Formula 1; n=1 and R=2,4-dimethylphenyl] the Ki [1] was 7.9 µM, the “total number of inflammatory cells in BAL fluid versus LPS control group” value ([2]; 5 mg/kg iv) was “not significantly different” and the “total number of inflammatory cells in BAL fluid versus LPS control group” value ([2]; 15 mg/kg iv) was “significant inhibition”. For the same compound, the “total number of inflammatory cells in BAL fluid versus LPS control group” value ([2]; 30 mg/kg iv) was “not significantly different”, the “decrease of neutrophils number in BAL fluid compared to vehicle (saline)-control group” value ([2]; iv pre-treatment 15 min prior to LPS, P<0.05) was 86.7% and the “peritoneal total cell number in untreated mice compared with treated mice” value ([3]; 5 mg/kg iv) was “markedly higher”. For the same compound, the “peritoneal total cell number in untreated mice compared with treated mice” value ([3]; 15 mg/kg iv) was “markedly higher”, the “anti-inflammatory actions (leukocyte migration into the peritoneal cavity)” value ([3]; iv pre-treatment, 3 h after thioglycolate) was “Dose-dependent anti-inflammatory actions” and the bioavailability [4] was 7.7%.

For `CO[C@@]12[C@H](COC(N)=O)C3=C(C(=O)C(C)=C(N)C3=O)N1C[C@@H]1N[C@@H]12` [Mitomycin C], the “tissue surrounding the site of surgical intervention / bleb” value [5] was “very visible dead tissue surrounding the bleb”.

Work on `O=C[C@@H](O)[C@@H](O)[C@H](O)[C@H](O)COP(=O)(O)O` [mannose-6-phosphate, reference compound] yielded a Ki [1] of 19 µM.
